Values after ≈ are worked out from the molar mass of the structure shown. Where two headings read alike, the source gives them in different places.
Assays:
MCF7 cancer cell line = test: MTT cell viability assay, MCF7; type: cell-based; conditions: Homo sapiens
Protocol: (§1) All cell lines were obtained from the Vacsera Cell Culture Library, Tissue Culture Unit, Cairo, Egypt, with ATCC certification. For further details, See Supplementary Appendix A in the supplementary data.
(§2) All cell lines were obtained from the Vacsera Cell Culture Library, Tissue Culture Unit, Cairo, Egypt, with ATCC certification.
(§3) Cells were cultured in DMEM (Invitrogen/Life Technologies) supplemented with 10% FBS (Hyclone), […] (Sigma), and 1% penicillin-streptomycin. Cells were seeded at a density of 1.2–1.8 × 10,000 cells per well in 96-well plates with 100 µL of complete growth medium […]. After 24 hours of incubation, 100 µL of serially diluted sterile test compounds were added to achieve final concentrations ranging from 0.01 to 100 µM, with growth media serving as the negative control. Following another 24-hour incubation, supernatants were removed, and cells were prepared for MTT testing.
(§4) Each experiment included a blank control with complete media but no cells. […] Reconstituted MTT was added to the culture medium at 10% of its volume, and cultures were incubated for 2 to 4 hours, depending on cell type and density.
(§5) Absorbance was measured spectrophotometrically at 570 nm, with background absorbance at 690 nm subtracted. Data from all experiments were recorded, and cell viability percentages were calculated.

PC3 cancer cell line = test: MTT cell viability assay, PC3; type: cell-based; conditions: Homo sapiens, read-out: IC50 PC3
Protocol: as §1, §2, §3, §4, §5

[1] = test system: normal CCD-986sk cell line; test: MTT cell viability assay, normal CCD-986sk; type: cell-based; conditions: Homo sapiens, read-out: IC50 CCD-986sk
Protocol: as §1, §2, §3, §4, §5

CA IX = conditions: benzofuran-based SLC-0111 analog; ref Shaldam et al., 2021; cited from earlier work
HT-29 cancer cell line = test: MTT cell viability assay, HT-29; type: cell-based; conditions: Homo sapiens, HT-29 colon cancer cells
Protocol: as §1, §2, §3, §4, §5

PC3 cells [2] = test: Cell cycle analysis by flow cytometry (PI); type: cell-based, human; conditions: Pyr at IC50 (8.63 μg/mL), 24 hours
Protocol: For further details, See Supplementary Appendix A in the supplementary data.
After treatment, the cells were washed twice with ice-cold phosphate-buffered saline (PBS, pH 7.4, Sigma-Aldrich, Inc.), collected by centrifugation, and fixed in 66% ice-cold ethanol. The cells were subsequently washed with PBS, resuspended in a solution containing 0.1 mg/mL RNase for 30 minutes, stained with 50 µg/mL propidium iodide (PI), and analyzed using the FACSCalibur flow cytometry system (Becton Dickinson, Franklin Lakes, NJ, USA). Cell cycle distributions were determined with CellQuest software (Becton Dickinson).

PC3 cells [3] = test: Annexin V-FITC/PI apoptosis assay; type: cell-based, human; conditions: Pyr at IC50 (8.63 μg/mL), 48 hours
Source text: To detect apoptosis in PC3 cancer cells, the Annexin V FITC assay protocol was employed as described in the literature ([Ali et al., 2024]). For further details, See Supplementary Appendix A in the supplementary data.
The Annexin V-FITC Apoptosis Detection Kit (Catalog #: K101-25, Bio Vision Research Products, Mountain View, CA, USA) operates on the principle that during the early stages of apoptosis, phosphatidylserine (PS) translocates from the inner leaflet of the plasma membrane to the extracellular surface. This relocation allows PS to be detected by Annexin V, a protein with high affinity for PS, when conjugated with a fluorescent compound. The staining process is quick, taking only 10 minutes, and apoptosis detection is performed using flow cytometry. The kit differentiates between apoptotic and necrotic cells based on Annexin V-FITC and propidium iodide (PI) labeling. Early apoptotic cells are Annexin V-positive and PI-negative, while late apoptotic cells are both Annexin V-positive and PI-positive.
For the experiment, cells (5 × 10⁵) were cultured in triplicate in Dulbecco’s Modified Eagle Medium (DMEM) at 37 °C in a 5% CO₂ atmosphere for 24 hours to allow for attachment. […] Following incubation, cells were harvested, washed with cold PBS, and resuspended in binding buffer. Annexin V and PI were added, and the cells were incubated at 4 °C in the dark for 30 minutes for staining. Flow cytometric analysis was performed using the FACS Calibur system (Becton Dickinson, Franklin Lakes, NJ, USA) on a minimum of 10⁴ cells. Dot plots were generated, and the total fraction of apoptotic cells was quantified as described.

p53 = p53 protein expression level in PC3 cells; type: cell-based, human; conditions: DMSO control 151.33 ± 3.33
Bax = Bax protein expression level in PC3 cells; type: cell-based, human; conditions: DMSO control 81.49 ± 3.16
Bcl-2 = Bcl-2 protein expression level in PC3 cells; type: cell-based, human; conditions: DMSO control 21.68 ± 0.7
caspase-3 = test: Caspase-3 activity in PC3 cells; type: cell-based, human; conditions: DMSO control 67.02 ± 2.6
Source text: (§6) This notable increase underscores the activation of downstream apoptotic processes, as caspase-3 is a key effector protease responsible for the cleavage of vital cellular substrates during apoptosis. […] The activation of caspase-9 indicates the involvement of the intrinsic (mitochondrial) pathway, consistent with the observed modulation of upstream regulators, including p53, Bax, and Bcl-2.

caspase-9 = test: Caspase-9 activity in PC3 cells; type: cell-based, human; conditions: DMSO control 4.66 ± 0.41
Source text: as §6

NS(=O)(=O)c1ccc(NC(=O)Nc2ccc(F)cc2)cc1 [SLC-0111, reference compound]
IC50 (MCF7 cancer cell line; MCF7, read-out: IC50 MCF7): 18.1 µg/mL (≈ 58.7 µM) | IC50 (PC3 cancer cell line): 8.71 µg/mL (≈ 28.2 µM) | IC50 ([1]; CCD-986Sk): 45.7 µg/mL (≈ 148 µM)

NS(=O)(=O)c1ccc(NC(=O)Nc2oc3ccccc3c2Br)cc1 [compound 1]
Ki (CA IX): 7.1 nM

NS(=O)(=O)c1ccc(NC(=O)Nc2ccncc2)cc1 [Pyr, 4-(3-(pyridin-4-yl)ureido)benzenesulfonamide]
IC50 (HT-29 cancer cell line): 27.7 µg/mL (≈ 94.9 µM) | IC50 (MCF7 cancer cell line; MTT, MCF7 breast cancer cells, read-out: IC50 MCF7): 11.2 µg/mL (≈ 38.3 µM) | IC50 (PC3 cancer cell line; MTT, PC3 prostate cancer cells): 8.36 µg/mL (≈ 28.6 µM) | IC50 ([1]; MTT, normal CCD-986sk cells): 50.3 µg/mL (≈ 172 µM) | DNA content % G2/M (PC3 cells [2]; DMSO control 17.50): 7.18% | DNA content % S (PC3 cells [2]; DMSO control 28.66): 16.23% | DNA content % G0-G1 (PC3 cells [2]; DMSO control 53.84): 76.59% | Apoptosis Late (PC3 cells [3]; DMSO control 0.15): 15.74% | Apoptosis Early (PC3 cells [3]; DMSO control 0.42): 9.33% | Necrosis (PC3 cells [3]; DMSO control 1.82): 4.39% | P53 Conc (p53): 1461.33 ± 10.00 pg/mL | Bax Conc (Bax): 477.27 ± 18.54 pg/mL | Bcl-2 Conc (Bcl-2): 8.88 ± 0.3 pg/mL | Caspase 3 Conc (caspase-3): 573.19 ± 22.27 pg/mL | Caspase-9 Conc (caspase-9): 41.82 ± 0.95 ng/mL
